Test results reported in patent publication US10508111B2, “6-[5-amino-6-(2-ethoxyethoxy)-imidazo[4,5-B]pyridin-3-yl]-nicotinonitrile derivatives and their use as IRAK inhibitors” (GALAPAGOS NV, priority 2015, dated 2019).

Experiments:
[1] = molecular target: T1, CDK9 (Homo sapiens, UniProt P50750); test: Kinase selectivity profiling (focused panel), radioactive filter plate assay: CDK9; format: biochemical; conditions: PDKtide, 0.25 μM ATP, 60 min
T1 construct: purchased Millipore 14-685
Procedure: (§1) The purpose of this assay is to determine the activity and selectivity of a compound of the invention on a selected range of human kinases which may result in undesirable side-effects when inhibited (Dy & Adjei 2013; Force & Kolaja 2011).
(§2) The IC50 value for off-target kinases is determined in radioactive filter plate assays. The principle of the assays consists in the measurement of incorporated ^33P into a peptide substrate upon phosphorylation by the kinase enzyme using [γ-^33P]ATP and ATP. Unincorporated ^33P is removed by loading the samples on a filter plate (using a harvester, PerkinElmer) and 6 subsequent washing steps. Incorporated ^33P in the peptide substrate is measured by a scintillation counter (Topcount, PerkinElmer) after addition of MicroScint™-20 (PerkinElmer, 6013621) to the filter plates.
(§3) 5 μL of a water dilution series of test compound (starting from 20 μM or 6.6 μM highest concentration), from a 100% DMSO stock solution, 1/5 dilution, is added to the wells (final DMSO concentration of 1% in reaction assay). Enzyme and peptide substrate are used at optimized concentrations (cf. Table VI). The enzyme and substrate are diluted in assay buffer to a total volume of 11 μL. The reaction is started by addition of 9 μL of ATP+[γ-^33P]ATP, diluted in the same buffer as enzyme and substrate. The mixture is incubated at 30° C. The reaction is terminated by adding 25 μL of 150 mM phosphoric acid. Samples are transferred to filter plates and incorporated radioactivity is measured using a scintillation counter.
(§4) The incubation time, assay buffer composition, and concentrations of ATP, enzyme and substrate are reported in Table VI for example kinase off-target assays.
(§5) 10 μM staurosporine (1% DMSO) is used as positive control (100% inhibition); vehicle (water+1% DMSO) as negative control (0% inhibition).

[2] = molecular target: T2, GSK3b (Homo sapiens, UniProt P49841); test: Kinase selectivity profiling (focused panel), radioactive filter plate assay: GSK3b; format: biochemical; conditions: Phospho glycogen synthase peptide2, 1.5 μM ATP, 90 min
T2 construct: purchased Carna Biosciences 04-141
T2 sequence (P49841 whole entry): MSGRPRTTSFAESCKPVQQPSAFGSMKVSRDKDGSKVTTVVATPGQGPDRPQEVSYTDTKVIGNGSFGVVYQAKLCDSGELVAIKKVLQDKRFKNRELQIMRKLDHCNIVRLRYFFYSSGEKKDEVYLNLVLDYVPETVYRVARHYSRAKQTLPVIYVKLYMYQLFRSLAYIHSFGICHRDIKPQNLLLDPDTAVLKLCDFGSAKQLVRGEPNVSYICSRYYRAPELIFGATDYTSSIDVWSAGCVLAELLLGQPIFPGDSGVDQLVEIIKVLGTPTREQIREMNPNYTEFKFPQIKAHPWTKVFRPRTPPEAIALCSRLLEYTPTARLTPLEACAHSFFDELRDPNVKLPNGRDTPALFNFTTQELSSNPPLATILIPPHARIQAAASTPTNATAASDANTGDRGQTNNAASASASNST
Procedure: as §1, §2, §3, §4, §5

[3] = molecular target: T3, c-SRC (Homo sapiens, UniProt P12931); test: Kinase selectivity profiling (focused panel), radioactive filter plate assay: c-SRC; format: biochemical; conditions: PolyGT substrate, 0.25 μM ATP, 60 min
T3 construct: purchased Carna Biosciences 08-173
T3 sequence (P12931 whole entry): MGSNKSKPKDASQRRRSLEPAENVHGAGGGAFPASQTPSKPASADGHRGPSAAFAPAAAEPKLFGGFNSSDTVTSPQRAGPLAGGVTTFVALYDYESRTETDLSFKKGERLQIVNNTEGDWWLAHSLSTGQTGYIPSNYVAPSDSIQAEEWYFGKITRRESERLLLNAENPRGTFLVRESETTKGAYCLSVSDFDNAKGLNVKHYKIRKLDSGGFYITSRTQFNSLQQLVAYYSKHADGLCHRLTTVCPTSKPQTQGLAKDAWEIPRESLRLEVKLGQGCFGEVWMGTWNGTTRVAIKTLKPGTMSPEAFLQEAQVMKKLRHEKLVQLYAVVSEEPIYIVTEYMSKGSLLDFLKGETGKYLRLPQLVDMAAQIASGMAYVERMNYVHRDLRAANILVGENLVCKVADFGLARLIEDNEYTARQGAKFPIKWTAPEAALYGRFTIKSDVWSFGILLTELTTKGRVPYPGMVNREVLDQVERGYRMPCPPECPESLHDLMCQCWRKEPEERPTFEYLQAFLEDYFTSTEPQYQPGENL
Procedure: as §1, §2, §3, §4, §5

[4] = molecular target: T4, CDK2 (Homo sapiens, UniProt P24941); test: Kinase selectivity profiling (focused panel), radioactive filter plate assay: CDK2; format: biochemical; conditions: Histone H1-derived peptide, 0.1 μM ATP, 60 min
T4 construct: purchased Carna Biosciences 04-103
Procedure: as §1, §2, §3, §4, §5

[5] = tested on: IL-1β triggered MMP13 release in SW1353 cells; test: SW1353 cellular selectivity assay, IL-1β trigger, MMP13 readout; format: cell-based, human; conditions: IL-1β trigger 1 ng/mL; for IC50: Homo sapiens; for IL-1β trigger MMP13 PIN at 20 μM: percent inhibition at 20 μM compound
Excerpt: The aim of this assay is to evaluate the selectivity of compounds of the invention for the activated TLR/IRAK-4 pathway in an in vitro human cellular assay setting. SW1353 cells are from a chondrocytic cell line and are responsive to both the interleukin 1 (IL-1) and the TNFα cytokine triggers. Both cytokine triggers induce the expression of interleukin 6 (IL-6) and MMP13 by these cells. IL-6 and MMP13 releases are used as readouts in this assay and represent a measure for the level of inhibition of the TLR/IRAK-4 pathway by the tested compound.
SW1353 cells are cultured in DMEM supplemented with 10% FBS and 1% Penicillin/Streptomycin. Cells are incubated at 37° C. in a humidified atmosphere of 5% CO2 and subcultured twice a week. During subculturing, trypsin-EDTA is used to detach the cells, followed by a neutralization step with cell culture medium. After centrifugation (1,000 rpm during 5 min), the pellet is resuspended in cell culture medium and cells are counted using an automated cell counter (Invitrogen Countess™).
Cells are used at passage 16 and plated at a density of 15,000 cells per well in 120 μL cell culture medium in 96-well culture plates. Cells are allowed to attach during overnight incubation.
SW1353 cells are pre-incubated with test compound by addition of 15 μL of 10× concentrated compound solution for 2 h at 37° C. and 5% CO2. The compounds are tested at different concentrations and prepared by 3-fold serial dilutions from the 10 mM stock solution in DMSO followed by a 1/50 dilution step in cell culture medium. Final test concentrations in the assay start from 20 μM, with subsequent 3-fold serial dilutions with equal final DMSO concentrations of 0.2%. After the compound pre-incubation step, the SW1353 cells are triggered by addition of 15 μL of 10× concentrated IL-1f (Peprotech, 200-01B) or TNFα trigger (Peprotech, 300-01A) to the wells with final assay volume of 150 μL per well and final trigger concentration of 1 ng/mL and 10 ng/mL, respectively. Negative controls are adjusted with equal DMSO concentrations without trigger. The assay plates are then incubated in a humidified incubator at 37° C. and 5% CO2. Cell supernatants are harvested 24 h and 48 h later by transferring the cell medium into a V-bottom polypropylene 96-well plate and stored at −80° C. until ELISA readout.
The levels of secreted MMP13 in the cell supernatants are quantified in an antibody capture activity assay. […] After incubation for 1 h at 37° C., fluorescence of the converted substrate is measured with a PerkinElmer EnVision® (excitation wavelength: 320 nm, emission wavelength: 405 nm).
All controls are measured within the linear range of the human IL-6 and MMP13 standard curve of the ELISA. […]

T1 sequence (P50750 whole entry): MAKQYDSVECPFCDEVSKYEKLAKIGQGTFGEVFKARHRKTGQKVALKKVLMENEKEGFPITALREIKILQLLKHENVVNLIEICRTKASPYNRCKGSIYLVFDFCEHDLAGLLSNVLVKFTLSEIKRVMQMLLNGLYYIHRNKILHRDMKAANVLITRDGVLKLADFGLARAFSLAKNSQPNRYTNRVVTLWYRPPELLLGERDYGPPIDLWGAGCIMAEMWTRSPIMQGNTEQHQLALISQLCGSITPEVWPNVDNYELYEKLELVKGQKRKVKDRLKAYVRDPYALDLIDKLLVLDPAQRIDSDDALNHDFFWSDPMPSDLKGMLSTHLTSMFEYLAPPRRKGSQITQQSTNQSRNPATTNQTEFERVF
T1 sequence (O60563 whole entry partner): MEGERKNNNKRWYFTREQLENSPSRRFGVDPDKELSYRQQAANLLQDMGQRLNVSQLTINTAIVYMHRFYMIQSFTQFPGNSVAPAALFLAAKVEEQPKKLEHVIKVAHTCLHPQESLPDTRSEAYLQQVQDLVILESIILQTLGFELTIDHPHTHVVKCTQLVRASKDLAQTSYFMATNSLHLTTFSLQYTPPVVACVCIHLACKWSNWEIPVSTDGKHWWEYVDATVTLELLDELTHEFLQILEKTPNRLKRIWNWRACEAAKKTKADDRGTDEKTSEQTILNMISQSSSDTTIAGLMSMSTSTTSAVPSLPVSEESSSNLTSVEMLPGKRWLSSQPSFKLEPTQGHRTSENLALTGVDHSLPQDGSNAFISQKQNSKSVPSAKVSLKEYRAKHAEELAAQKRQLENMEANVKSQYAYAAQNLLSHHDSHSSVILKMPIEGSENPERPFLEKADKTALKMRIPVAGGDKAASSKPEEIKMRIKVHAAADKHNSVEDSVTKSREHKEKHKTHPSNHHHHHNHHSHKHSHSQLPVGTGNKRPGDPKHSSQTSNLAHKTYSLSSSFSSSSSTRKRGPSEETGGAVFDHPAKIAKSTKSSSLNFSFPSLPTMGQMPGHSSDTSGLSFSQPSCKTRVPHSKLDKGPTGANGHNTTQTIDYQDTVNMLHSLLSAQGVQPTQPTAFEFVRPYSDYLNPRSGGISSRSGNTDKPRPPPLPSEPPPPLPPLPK

Row | IC50 [1] | IC50 [2] | IC50 [3] | IC50 [4] | IC50 [5] | Compound | IL-1β trigger MMP13 PIN at 20 μM [5]
1 | > 1.33 µM | > 6.67 µM | > 1.33 µM | > 6.67 µM | 0.036 µM | N#Cc1ccc(-n2cnc3cc(OCCOCCO)c(NC4CCOCC4)nc32)nc1 [Compound 1, 6-[6-[2-(2-hydroxy-ethoxy)-ethoxy]-5-(tetrahydro-pyran-4-ylamino)-imidazo[4,5-b]pyridin-3-yl]-nicotinonitrile] | [81%]
2 | 1.15 µM | > 1.33 µM | 0.477 µM | 0.944 µM | 0.029 µM | C[C@]1(O)CC[C@@H](Nc2nc3c(cc2OCCOCCO)ncn3-c2ccc(C#N)cn2)CC1 [Compound 12, 6-[6-[2-(2-hydroxyethoxy)ethoxy]-5-[((cis-1,4)-4-hydroxy-4-methylcyclohexyl)amino]imidazo[4,5-b]pyridin-3-yl]pyridine-3-carbonitrile] | [75%]
